Data from US20230181604A1, “Use of Mitochondria-Targeted Antioxidants to Treat Severe Inflammatory Conditions” (Mitotech S.A., priority 2020, published 2023).

How the values were obtained:
[1] = SkQ1 bioavailability study, LCMS/MS blood concentration after i/v, i/p, s/c injection; type: in vivo; details: Wistar rats, 2 mg\kg
Protocol: The bioavailability of SkQ1 was determined after using different methods of administration. SPF category Wistar rats were used. SkQ1 concentration in blood samples was measured using an LCMS/MS method SkQ1 was administered at 2 mg\kg, and blood samples were taken at the indicated time points. Administration was by intravenous injection (FIG. 1A), intraperitoneal injection (FIG. 1B), or subcutaneous injection (FIG. 1C). Total SkQ1 dose was calculated as area under the curve (AUC) as shown at left of FIG. 1D. SkQ1 bioavailability was normalized to that of i/v administration and is shown at the right side of FIG. 1D.

[2] = SkQ1 blood concentration with subcutaneous slow-release infusion pumps; type: in vivo; details: Wistar rats, slow-release infusion pumps introduced subcutaneously
Protocol: In the next experiment SkQ1 presence in the blood was prolonged by using slow-release infusion pumps introduced subcutaneously into Wistar rats. Blood samples from these animals were taken at timepoints indicated on FIG. 2, and SkQ1 concentration was measured as described above. […] This experiment also models administration of SkQ1 using intravenous infusion.

[3] = test system: human vascular endothelial cells; assay: VE-cadherin study of endothelial cell-to-cell contacts after SIRS/sepsis patient serum (western blot, fluorescence microscopy); type: cell-based
Protocol: The mitochondrially targeted antioxidants disclosed herein can prevent deconstruction of cell-to-cell contacts between human vascular endothelial cells in culture when these cells are treated with blood serum samples from patients with SIRS or sepsis. Results of a VE-cadherin western blot are presented on FIG. 3, wherein a cell culture of human endothelial cells is pretreated with different dosages of SkQ1, then exposed to serum from patients diagnosed with sepsis. […] In FIG. 4, blood samples are taken from patients with diagnosed SIRS, with the patients age 18-75 years. A cell culture of human endothelial cells is pretreated with different dosages of SkQ1, then treated with 5-10% serum from the SIRS blood samples. At the top of FIG. 4, the VE-cadherin (fluorescence microscopy) c resembles the VE-cadherin at the bottom of FIG. 4 (SIRS serum+200 nM SkQ1). Actin and nucleus visualizations in FIG. 4 correspond with VE-cadherin observations.
Blood samples were taken from patients ages 18-75 years with diagnosed SIRS. Cell cultures of human endothelial cells were pretreated with different amounts of SkQ1, after which the cultures were treated with 5-10% serum from the SIRS blood samples. A one hour VE-cadherin study was performed by fluorescent microscopy followed by western-blot analysis. Results of the experiment are presented on FIG. 3 (western blot) and FIG. 4 (microscopy).

[4] = test system: H5N1 influenza virus (strain chicken/Kurgan/5/2005); type: in vivo, balb\c mice
CD-1 mice [5] = assay: Acute toxicity, subcutaneous administration; type: in vivo; details: for LD50: subcutaneous
From the text: The acute toxicity of SkQ1 solution administered by subcutaneous administration was studied in SPF male and female CD-1 mice.

CD-1 mice [6] = assay: 28-day chronic toxicity with 14-day recovery, subcutaneous; type: in vivo
Protocol: SkQ1 solution 28-day chronic toxicity with 14-day recovery was studied in SPF male and female CD-1 mice at SkQ1 dosage of 0.6, 2.5, and 10 mg/kg administered subcutaneously, once daily. At 2.5 mg SkQ1/kg no adverse effects were identified (NOAEL) either at the end of the dosing or at the end of recovery. […] Peritonitis stemmed from the local ulcerative action of the formulation, while the adverse reactions of systems/organs were apparently the consequences of peritonitis.

mice [7] = assay: Shock by injection of isolated liver mitochondria into the tail vein, survival; type: in vivo; details: for Mortality after mitochondria injection: C12 TPP instead of SkQ1
Protocol: (§1) SkQ1 protected mice in three different mouse models of severe critical conditions. The first critical condition was induced by injection of a suspension of isolated liver mitochondria into the mouse tail vein. The second critical condition was induced by the sharp cold shock of placing mice for 90 minutes in a −20° C. environment. The third condition was induced by administration of a toxic concentration the of lipophilic cation C12 TPP, whose formula is shown below
The injection of mitochondria had no effect on survival during the first day (100% of the animals survived). However only 60% of animals survived the next two days. This survival rate persisted for at least 16 days. […] In this experiment a strong reduction in weight was clearly observed in the first 3 days after injection of mitochondria. Then the surviving animals began to recover—mortality disappeared, and body weight began to increase. In a control experiment, C12 TPP was used instead of SkQ1. In the case of C12 TPP, 20% of mice died in the first half day after the injection of mitochondria, and in two days the mortality had grown to 80%.
(§2) In the next series of experiments, it was investigated whether animals can be rescued by SkQ1 treatment administered simultaneously with the challenge or even after the challenge.

mice [8] = assay: Cold shock (90 minutes at −20° C.), survival; type: in vivo
Protocol: as §1
In the next experiment, critical condition was caused by a completely different stress, namely by cold shock resulting from incubating mice for 1.5 hours at −20° C. It can be seen in FIG. 8 that cold shock led to dramatic increase of mortality between days 5 and 8, resulting in a survival rate of 40%.
as §2

mice [9] = assay: Lethal shock by toxic dose of C12 TPP, survival; type: in vivo
Protocol: as §1
In the next experiment a critical condition in mice was induced by i/v injection of a toxic dose of C12 TPP (34 μmole/kg). Considering the membrane-penetrating and membrane-disruptive properties of C12 TPP, it can be expected that the lethal effect of i/v injection of C12 TPP occurs due to disruption of cells in the vascular system, including vascular endothelial cells.
This set of experiments was continued using the lethal shock was caused by toxic concentrations of C12 TPP. Two dosages of C12 TPP were used: 34 μmol/kg C12 TPP (FIG. 12) or 42 μmol/kg C12 TPP (FIG. 13). In the data shown in FIG. 12, SkQ1 (1.5 μmol/kg dosage) was administered to each of the mice both at 4.5 hours before C12 TPP and 0.5 hours after C12 TPP administration. Without SkQ1, about 80% of mice died within 32 hours after the injection of C12 TPP; with SkQ1 the death rate was reduced to 40%. In the experiment described in FIG. 13, the amount of C12 TPP was increased to 42 μmol/kg. […] In the experimental group, SkQ1 was administered once within 1 hour after C12 TPP treatment. In the SkQ1 treatment group ⅓ of the animals survived (FIG. 13).

TNFα = TNFα concentration in blood after shock; type: in vivo, mice; details: intravenous injection of liver mitochondria, i/p SkQ1
IL-6 = IL-6 concentration in blood after shock; type: in vivo, mice; details: intravenous injection of liver mitochondria, i/p SkQ1
[10] = H5N1-infected mice, i/p SkQ1 from day 2
[11] = SkQ1 injected one minute after shock stimulus

Compound: SkQ1
- SkQ1 bioavailability for intraperitoneal administration, of the bioavailability after intravenous administration ([1]; i/p, AUC normalized to i/v): 35%
- Persistence of SkQ1 in blood after injection ([1]; i/v, i/p or s/c injection): rapidly disappears from the blood
- SkQ1 bioavailability for subcutaneous administration, of the bioavailability after intravenous administration ([1]; subcutaneous, AUC normalized to i/v): 44%
- SkQ1 concentration in the blood with slow release [2]: can be stabilized
- VE-cadherin western blot intensity versus control ([3]; 200 nM SkQ1 and sepsis patient serum): about equal intensity to the control
- VE-cadherin fluorescence microscopy versus control ([3]; SIRS serum + 200 nM SkQ1): resembles
- Deconstruction of cell-to-cell contacts between endothelial cells ([3]; cells treated with serum from patients with SIRS or sepsis, SkQ1 pretreatment): prevented
- Death caused by influenza virus infection [4, 10]: delayed
- Development of bad health condition [4, 10]: delayed
- Protection against critical condition ([4]; intraperitoneal SkQ1 1000 nmoles/kg and 3000 nmoles/kg): protects against the critical condition
- Findings in mice surviving toxic doses (CD-1 mice [5]; 14 days after administration of toxic doses): signs of hepato- and nephrotoxicity
- Cause of lethal effect of high doses (CD-1 mice [5]; first hours after subcutaneous administration): respiratory arrest
- LD50 (CD-1 mice [5]; female CD-1 mice): 26.8 (23-31) mg SkQ1/kg
- LD50 (CD-1 mice [5]; male CD-1 mice): 31 (20.5-37.2) mg SkQ1/kg
- Animals died (due to peritonitis) (CD-1 mice [6]; 10 mg/kg subcutaneous once daily, 28 days): ≈ 15%
- NOAEL (no adverse effects identified) (CD-1 mice [6]; 28 days subcutaneous once daily, 14-day recovery): 2.5 mg SkQ1/kg
- Mortality from injection of mitochondria (mice [7]; [11]): significantly reduced
- Survival after mitochondria injection (mice [7]; treatment five days before and five days after mitochondria injection): 90%
- Mortality from cold shock (mice [8]; [11]): significantly reduced
- Death of animals after cold shock (mice [8]; premedication and after-shock treatment): completely prevented
- Effect on mortality caused by C12 TPP (mice [9]; 34 μmol/kg C12 TPP, SkQ1 pretreatment): prevented
- Death rate after C12 TPP with SkQ1 (mice [9]; 34 μmol/kg C12 TPP, SkQ1 1.5 μmol/kg 4.5 hours before and 0.5 hours after): 40%
- Fraction of animals survived (mice [9]; 42 μmol/kg C12 TPP, SkQ1 once within 1 hour after C12 TPP): ⅓
- Increase of blood concentration of TNFα (TNFα): almost completely suppressed
- Increase of blood concentration of IL-6 (IL-6): almost completely suppressed

Compound: CCCCCCCCCCCC[P+](c1ccccc1)(c1ccccc1)c1ccccc1 [C12 TPP, reference compound]
- Mortality after mitochondria injection (mice [7]; first half day after injection): 20%
- Mortality after mitochondria injection (mice [7]; in two days): 80%
- Mortality after cold shock (mice [8]; premedication and treatment, by the sixth day): 100%
- Mice died after C12 TPP (mice [9]; 34 μmol/kg C12 TPP without SkQ1, within 32 hours): about 80%
- Mortality caused by C12 TPP (mice [9]; 34 μmol/kg i/v, within 1 day): 90%
- Death after C12 TPP (mice [9]; 42 μmol/kg C12 TPP, control group, within 1.5 hours): all 12 animals died
